Experimental findings from PMC9600589, “The Heptaprenyl Diphosphate Synthase (Coq1) Is the Target of a Lipophilic Bisphosphonate That Protects Mice against Toxoplasma gondii Infection” (mBio, 2022) are described below.

One data set relates to T. gondii RH. Nature of the data set: In vitro growth inhibition of RFP-expressing tachyzoites in hTERT fibroblasts. The data set is classed as cell-based, Toxoplasma gondii. The conditions noted are these: for rescue of growth inhibition by UQ6: 10 μM UQ6 added to the culture; for IC50 / EC50: Toxoplasma gondii, Fibroblast; for IC50: T. gondii growth in vitro; for EC50: T. gondii RH. The protocol:
(§1) Experiments on T. gondii tachyzoites were carried out using parasites expressing red fluorescent protein (RFP) ([66]) with the modification described by Recher et al. ([67]). Tachyzoites were maintained in human fibroblasts (hTERT cells). For drug testing and growth assays, parasites were purified by passing them through a 25-gauge needle, followed by filtration through a 3-μm filter. Human fibroblasts were cultured in 96-well black-sided plates for 24 h before the addition of 4,000 fluorescent tachyzoites/well. […] The EC50s were calculated using Prism software. The UQ6 experiments were performed using the same protocol as described above. The parasites were supplemented with 10 μM UQ6.

Data set [1] deals with T. gondii parental strain (TatiΔku80). In words: Growth inhibition of the parental strain. It counts as cell-based. The conditions noted are these: Toxoplasma gondii, read-out: EC50 (TatiΔku80). The protocol: (§2) Previous work has shown that bisphosphonates can target several enzymes of the isoprenoid biosynthesis pathway, including the farnesyl diphosphate synthase (FPPS), which synthesizes FPP, the preferred substrate of TgCoq1 ([14]). […] We further determined specificity against TgCoq1, by comparing the growth inhibition of the compound against a parental strain (TatiΔku80) versus a cell line overexpressing TgCoq1 (TgCoq1-OE).
as §1

For data set [2], the system named is T. gondii TgCoq1-OE strain. Nature of the data set: Growth inhibition of the TgCoq1 overexpressing strain. It counts as cell-based. The conditions noted are these: Toxoplasma gondii, read-out: EC50 TgCoq1-OE strain. The method, then: as §2, §1
Data set [3] concerns the target T1, recombinant TgCoq1 (Toxoplasma gondii, UniProt S8EY63).
T1 sequence (S8EY63 152-676): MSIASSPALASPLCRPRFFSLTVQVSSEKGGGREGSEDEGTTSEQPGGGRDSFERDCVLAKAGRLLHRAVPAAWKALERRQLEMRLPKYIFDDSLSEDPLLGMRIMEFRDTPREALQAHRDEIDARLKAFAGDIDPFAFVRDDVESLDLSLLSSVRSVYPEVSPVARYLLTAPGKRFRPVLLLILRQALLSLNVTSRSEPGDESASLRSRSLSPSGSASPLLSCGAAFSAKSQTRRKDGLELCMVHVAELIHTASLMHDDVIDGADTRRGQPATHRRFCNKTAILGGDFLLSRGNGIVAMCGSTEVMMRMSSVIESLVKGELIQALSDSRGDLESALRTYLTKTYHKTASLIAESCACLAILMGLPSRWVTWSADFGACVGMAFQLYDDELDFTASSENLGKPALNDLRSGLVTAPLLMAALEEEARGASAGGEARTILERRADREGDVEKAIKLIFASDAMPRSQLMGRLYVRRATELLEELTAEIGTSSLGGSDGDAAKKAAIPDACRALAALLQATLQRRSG
In words: biochemical.

In the next data set the target is recombinant TgFPPS (Toxoplasma gondii, UniProt Q197X6). In words: biochemical.
Chain of recombinant TgFPPS (Q197X6 entry or part of it): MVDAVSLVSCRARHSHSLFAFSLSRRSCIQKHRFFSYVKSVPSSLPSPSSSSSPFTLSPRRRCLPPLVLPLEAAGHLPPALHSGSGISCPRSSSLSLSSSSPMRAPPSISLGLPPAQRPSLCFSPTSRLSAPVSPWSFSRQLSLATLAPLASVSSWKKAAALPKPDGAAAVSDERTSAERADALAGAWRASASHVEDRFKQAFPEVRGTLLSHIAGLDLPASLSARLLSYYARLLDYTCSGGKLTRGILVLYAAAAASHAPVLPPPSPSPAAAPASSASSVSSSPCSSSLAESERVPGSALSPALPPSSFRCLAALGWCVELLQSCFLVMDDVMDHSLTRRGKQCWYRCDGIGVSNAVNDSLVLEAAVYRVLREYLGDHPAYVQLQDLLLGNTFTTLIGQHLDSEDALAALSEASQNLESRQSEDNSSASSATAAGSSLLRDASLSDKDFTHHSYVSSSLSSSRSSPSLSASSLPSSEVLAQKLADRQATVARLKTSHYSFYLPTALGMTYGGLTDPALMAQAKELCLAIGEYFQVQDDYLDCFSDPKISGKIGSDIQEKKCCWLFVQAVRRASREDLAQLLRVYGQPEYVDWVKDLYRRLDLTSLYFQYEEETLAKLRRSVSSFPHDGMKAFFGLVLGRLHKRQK
Another data set concerns hTERT cells. In words: Cytotoxicity to hTERT cells (alamarBlue). The conditions noted are these: hTERT cells. The protocol: The cytotoxicity was tested using an alamarBlue assay as described by Recher et al. ([67]).
In data set [4] the target is T1, recombinant TgCoq1. In words: Kinetic parameters of recombinant TgCoq1 with allylic substrates ([4-14C]IPP incorporation). It counts as biochemical. The conditions noted are these: allylic substrate varied, counter substrate IPP (100 μM). The method, then:
(§3) To investigate the biochemical function of TgCoq1, we cloned the TGGT1_269430 gene in an E. coli expression plasmid, which also includes a C-terminal polyhistidine tag to facilitate the purification of the recombinant protein by affinity chromatography. The activity of the purified protein was determined using allylic substrates and cosubstrates, by measuring the amount of [4-^14C]IPP incorporated into butanol-extractable polyprenyl diphosphates (FPP and GGPP) (Fig. 2A). […] A parallel experiment with the already characterized recombinant Trypanosoma cruzi solanesyl diphosphate synthase ([26]), TcSPPS, known to synthesize a 45-carbon product, is shown in the same TLC (Fig. 2B). With the use of a standard enzymatic method ([26]), the kinetic parameters of the reaction were obtained using various concentrations of the allylic substrates (GPP, FPP, GGPP, and IPP) and keeping the concentration of counter substrates at a saturating level (Table 1). Under these experimental conditions, the enzyme was more efficient with FPP than with GGPP (Fig. 2C) or GPP as the substrate (Table 1).
(§4) Kinetic parameters for the recombinant TgCoq1 were calculated from the activity obtained by varying the concentration of the allylic substrates (GPP, FPP, GGPP, and IPP) and keeping the concentration of counter substrates at a saturating level. The nonlinear regression analysis in Sigma plot 10.0 was used to calculate the Kinetic parameters.
(§5) For the enzymatic activity, a standard protocol for medium/long-chain prenyl diphosphate synthase was followed as described previously ([26]). The enzyme activity was measured by assessing the amount of [4-^14C]IPP incorporated into butanol-extractable polyprenyl diphosphates. The standard assay mixture contained, in a final volume of 100 μl, Tris-HCl (100 mM, pH 7.4), 100 μM of any of the allylic substrates FPP/GGPP/GPP, 1 mM MgCl2, 1 mM DTT, 1% vol/vol Triton X-100, 100 μM [4-^14C]-IPP (1 μCi/μMol), and 500 ng of purified protein. Reaction mixtures were incubated at 37°C for 30 min unless otherwise indicated. The radioactive prenyl products were extracted with 1-butanol and washed with NaCl-saturated water, and activities were calculated from the DPM values.

Data set [5] has as its system T. gondii iΔCoq1 (+ATc) mutant. Nature of the data set: Rescue of the growth defect of the iΔCoq1 (+ATc) mutant by ubiquinones. The data set is classed as cell-based, Toxoplasma gondii. The method, then:
To further validate the role of TgCoq1 in the synthesis of ubiquinone, we tested if supplementing cultures of the iΔCoq1 (+ATc) mutant with various ubiquinones would rescue the growth defect (Fig. 7). Because UQ7 is not commercially available, we tested UQ6, UQ8, and UQ10 and observed a remarkable rescue of the growth of the iΔCoq1 (+ATc) mutant by UQ6 (Fig. 7A).
Experiments on T. gondii tachyzoites were carried out using parasites expressing red fluorescent protein (RFP) ([66]) with the modification described by Recher et al. ([67]). Tachyzoites were maintained in human fibroblasts (hTERT cells). For drug testing and growth assays, parasites were purified by passing them through a 25-gauge needle, followed by filtration through a 3-μm filter. Human fibroblasts were cultured in 96-well black-sided plates for 24 h before the addition of 4,000 fluorescent tachyzoites/well. Fluorescence values were measured for up to 9 days, and both excitation (544 nm) and emission (590 nm) were read from the bottom of the plates in a Molecular Devices plate reader ([46]). The EC50s were calculated using Prism software. The UQ6 experiments were performed using the same protocol as described above. […]

Substrate in data set [6]: C=C(C)CCO[P@@](=O)(O)OP(=O)(O)O
In words: Kinetic parameters of recombinant TgCoq1 with allylic substrates ([4-14C]IPP incorporation). The data set is classed as biochemical, Toxoplasma gondii. Conditions: pH 7.4, 37.0 °C. The protocol: as §3, §4, §5

Substrate in data set [7]: CC(C)=CCC/C(C)=C/CC/C(C)=C/CO[P@@](=O)(O)OP(=O)(O)O
The description is as above. It counts as biochemical, Toxoplasma gondii. Conditions: other: allylic substrate varied, counter substrate IPP (100 μM); pH 7.4; 37.0 °C. The method, then:
as §3, §4, §5

Setting [8] is: at 4X EC50 (concentration in μM in brackets).
[9] abbreviates: at 10X EC50 (concentration in μM in brackets).
Setting [10] is: other: counter substrate FPP (100 μM).
Where [11] appears, read: other: counter substrate GGPP (50 μM).
Where [12] appears, read: other: counter substrate GPP (150 μM).

Like-named read-outs stand apart in the source and are kept apart here.

Take `O=C1C(O)=C([C@H]2CC[C@H](c3ccc(Cl)cc3)CC2)C(=O)c2ccccc21` [Atovaquone]: the “rescue of growth inhibition by UQ6” value with T. gondii RH is listed as “modest rescue”. Moreover, the values for the EC50 in data set [1] and in [2] were 30 ± 10 nM and 40 ± 10 nM, respectively.

As for `CCCCCCCCC(O)(P(=O)(O)O)P(=O)(O)O` [BPH-252], the IC50 at recombinant TgCoq1 [3] was 2130 ± 520 nM; on recombinant TgFPPS, 130 ± 50 nM; in the data set with T. gondii RH it was 850 ± 140 nM.

Take `CCCCCCCCn1cc[n+](CC(P(=O)([O-])O)P(=O)(O)O)c1` (stereo not drawn) [BPH-1217]: the “% Inhibition (cytotoxicity)” value in the data set on hTERT cells (setting [8]) was determined as 8.01 ± 1.82%; with hTERT cells (setting [9]), 6.19 ± 9.55%.

On to `CCCCCCCCCCCCCCn1cc[n+](CC(P(=O)([O-])O)P(=O)(O)O)c1` (stereo not drawn) [BPH-1219], for which the “% Inhibition (cytotoxicity)” value in the data set on hTERT cells (setting [8]) was determined as 3.20 ± 2.89%; in the data set on hTERT cells (setting [9]), 8.01 ± 1.82%.

Consider `CCCCCCCCCCCn1cc[n+](CC(O)(P(=O)([O-])O)P(=O)(O)O)c1` (stereo not drawn) [BPH-1236], for which the “% Inhibition (cytotoxicity)” value with hTERT cells (setting [8]) amounted to 4.13 ± 1.20%; with hTERT cells (setting [9]), 9.10 ± 2.38%.

Turning to `CCCCCCCCCn1cc[n+](CC(O)(P(=O)([O-])O)P(=O)(O)O)c1` (stereo not drawn) [BPH-1238], the “% Inhibition (cytotoxicity)” value came to 9.77 ± 1.18% in the data set with hTERT cells (setting [8]) and 13.37 ± 6.08% with hTERT cells (setting [9]).

For the molecule `CCCCCCCCCCCCCCCn1cc[n+](CC(O)(P(=O)([O-])O)P(=O)(O)O)c1` (stereo not drawn) [BPH-1325], the figures for the IC50 at recombinant TgCoq1 [3], on recombinant TgFPPS and with T. gondii RH were 1690 ± 460 nM, 700 ± 60 nM and 1650 ± 890 nM, respectively.

Turning to `CC(C)=CCC/C(C)=C/CC/C(C)=C/CC/C(C)=C/COP(=O)(O)OP(=O)(O)O` [GGPP, geranylgeranyl diphosphate], at recombinant TgCoq1 [4], the Kcat stood at 0.00275 ± 8.3e-05 s⁻¹, the Km was 14.1 ± 1.43 µM and the Vmax is recorded as 82.98 ± 2.51 nmol/min/mg.

Regarding `CC(C)=CCC/C(C)=C/COP(=O)(O)OP(=O)(O)O` [GPP, geranyl diphosphate], on recombinant TgCoq1 [4], the Kcat amounted to 0.0002 ± 1.7e-05 s⁻¹, the Km came to 0.88 ± 0.6 µM and the maximal velocity (Vmax) came to 6.16 ± 0.45 nmol/min/mg.

In the case of `Cc1[nH]c2c(c(=O)c1-c1ccc(Oc3ccc(OC(F)(F)F)cc3)cc1)CCCC2` [JAG-21], in the data set with T. gondii RH, the “rescue of growth inhibition by UQ6” value was “not rescued”. The EC50 came to 70 ± 1 nM in the data set on T. gondii RH (with ubiquinone Q6 (10 μM) in the culture, read-out: EC50 + UQ6) and 49 ± 20 nM in the data set with T. gondii RH (without UQ6, read-out: EC50). For the same molecule, the “% Inhibition (cytotoxicity)” value was 6.40 ± 5.50% in the data set with hTERT cells (setting [8]) and 5.75 ± 4.98% with hTERT cells (setting [9]).

In the case of `CC(C)=CCC/C(C)=C/CNCCNC1C2CC3CC(C2)CC1C3` (stereo not drawn) [SQ109], the EC50 came out at 1730 ± 380 nM in data set [1] and 1800 ± 470 nM in [2].

`COC1=C(OC)C(=O)C(C/C=C(\C)CC/C=C(\C)CC/C=C(\C)CC/C=C(\C)CC/C=C(\C)CCC=C(C)C)=C(C)C1=O` [UQ6, Ubiquinone Q6]: the figures for the “rescue of growth of the iΔCoq1 mutant with ATc” value in [5] (5 μM ubiquinone) and in data set [5] (10 μM ubiquinone) were “rescue” and “rescued”, respectively.

As for `COC1=C(OC)C(=O)C(C/C=C(\C)CC/C=C(\C)CC/C=C(\C)CC/C=C(\C)CC/C=C(\C)CC/C=C(\C)CC/C=C(\C)CCC=C(C)C)=C(C)C1=O` [UQ8, ubiquinone 8], the “rescue of growth of the iΔCoq1 mutant with ATc” value in data set [5] (5 μM ubiquinone) is listed as “no rescue”.

With `COC1=C(OC)C(=O)C(C/C=C(\C)CC/C=C(\C)CC/C=C(\C)CC/C=C(\C)CC/C=C(\C)CC/C=C(\C)CC/C=C(\C)CC/C=C(\C)CC/C=C(\C)CCC=C(C)C)=C(C)C1=O` [UQ10, ubiquinone 10], the “rescue of growth of the iΔCoq1 mutant with ATc” value in [5] (5 μM ubiquinone) was “no rescue”.

B1: recombinant TgCoq1 (Toxoplasma gondii ME49) (protein)
chain: MSIASSPALASPLCRPRFFSLTVQVSSEKGGGREGSEDEGTTSEQPGGGRDSFERDCVLAKAGRLLHRAVPAAWKALERRQLEMRLPKYIFDDSLSEDPLLGMRIMEFRDTPREALQAHRDEIDARLKAFAGDIDPFAFVRDDVESLDLSLLSSVRSVYPEVSPVARYLLTAPGKRFRPVLLLILRQALLSLNVTSRSEPGDESASLRSRSLSPSGSASPLLSCGAAFSAKSQTRRKDGLELCMVHVAELIHTASLMHDDVIDGADTRRGQPATHRRFCNKTAILGGDFLLSRGNGIVAMCGSTEVMMRMSSVIESLVKGELIQALSDSRGDLESALRTYLTKTYHKTASLIAESCACLAILMGLPSRWVTWSADFGACVGMAFQLYDDELDFTASSENLGKPALNDLRSGLVTAPLLMAALEEEARGASAGGEARTILERRADREGDVEKAIKLIFASDAMPRSQLMGRLYVRRATELLEELTAEIGTSSLGGSDGDAAKKAAIPDACRALAALLQATLQRRSG
As to B1, the Km in data set [6] (setting [10]) is 139.11 ± 17.68 µM; in data set [6] (setting [11]) it was 141.89 ± 35.75 µM; in data set [6] (setting [12]), 145.48 ± 1.18 µM; in [7] it was 12.37 ± 1.83 µM. Also, the kcat/Km in data set [6] (setting [10]) is 134 M⁻¹ s⁻¹; in data set [6] (setting [11]), 87.5 M⁻¹ s⁻¹; in [6] (setting [12]), 6.5 M⁻¹ s⁻¹; in data set [7] it was 609 M⁻¹ s⁻¹.
